Drawing on US8232406B2, “c-MET protein kinase inhibitors” (Vertex Pharmaceuticals Incorporated, priority 2006, dated 2012), this text covers Ki for 74 molecules.

c-MET, sequence (P08581 25-1390): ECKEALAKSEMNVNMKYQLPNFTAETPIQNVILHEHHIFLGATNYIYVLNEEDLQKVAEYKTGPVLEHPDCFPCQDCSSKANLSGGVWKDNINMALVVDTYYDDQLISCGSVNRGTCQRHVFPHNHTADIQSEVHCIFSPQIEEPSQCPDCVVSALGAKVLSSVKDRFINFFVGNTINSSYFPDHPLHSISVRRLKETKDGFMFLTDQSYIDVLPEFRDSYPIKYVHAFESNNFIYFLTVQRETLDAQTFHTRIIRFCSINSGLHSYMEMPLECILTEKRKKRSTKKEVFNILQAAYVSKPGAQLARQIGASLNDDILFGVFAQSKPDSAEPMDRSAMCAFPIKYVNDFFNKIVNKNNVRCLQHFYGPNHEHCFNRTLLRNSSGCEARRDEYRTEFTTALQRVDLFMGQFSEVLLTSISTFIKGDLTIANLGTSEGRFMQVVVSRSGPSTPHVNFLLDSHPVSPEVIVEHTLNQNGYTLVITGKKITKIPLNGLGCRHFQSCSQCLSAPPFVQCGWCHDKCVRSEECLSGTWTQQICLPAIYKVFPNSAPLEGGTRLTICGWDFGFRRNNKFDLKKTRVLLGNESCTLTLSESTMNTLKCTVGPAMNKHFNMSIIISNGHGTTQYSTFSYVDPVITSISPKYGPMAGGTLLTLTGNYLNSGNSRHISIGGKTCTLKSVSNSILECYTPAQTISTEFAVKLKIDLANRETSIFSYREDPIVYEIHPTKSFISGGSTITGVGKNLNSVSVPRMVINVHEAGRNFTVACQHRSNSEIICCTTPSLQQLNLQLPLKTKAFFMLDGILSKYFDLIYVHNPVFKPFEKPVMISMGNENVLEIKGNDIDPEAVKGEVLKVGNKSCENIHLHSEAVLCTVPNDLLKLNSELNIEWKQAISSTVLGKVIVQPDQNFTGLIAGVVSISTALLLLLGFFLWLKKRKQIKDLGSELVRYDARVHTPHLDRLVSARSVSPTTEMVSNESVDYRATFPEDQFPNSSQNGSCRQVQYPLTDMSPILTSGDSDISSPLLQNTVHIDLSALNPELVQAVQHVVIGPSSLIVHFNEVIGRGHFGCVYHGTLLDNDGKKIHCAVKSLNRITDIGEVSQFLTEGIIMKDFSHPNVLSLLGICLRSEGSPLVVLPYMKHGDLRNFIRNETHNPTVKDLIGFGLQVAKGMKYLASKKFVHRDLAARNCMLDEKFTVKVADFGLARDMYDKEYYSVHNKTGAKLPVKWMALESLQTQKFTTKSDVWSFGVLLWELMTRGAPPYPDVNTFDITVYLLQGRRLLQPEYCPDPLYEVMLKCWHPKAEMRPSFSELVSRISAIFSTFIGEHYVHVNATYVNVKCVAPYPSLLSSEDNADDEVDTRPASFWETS

In this test the target is c-MET (Homo sapiens, UniProt P08581). Briefly: Ki determination for the inhibition of c-MET (standard radiometric 33P-ATP kinase assay, polyE4Y substrate). The test is classed as biochemical. The conditions noted are these: 1.0 nM c-Met, 35 μM ATP, 0.5 mg/mL polyE4Y, 20 min; competitive tight-binding fit. The method in brief:
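Radiometric assay of 33P transfer from 33P-ATP (35 μM) to polyE4Y (0.5 mg/mL) by 1.0 nM c-Met in 100 mM HEPES pH 7.5, 10 mM MgCl2, 25 mM NaCl, 0.01% BSA, 1 mM DTT. TCA-quenched after 20 min, filter-captured, scintillation-counted; Ki fitted to a competitive tight-binding model.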
Regarding `Nc1ncc(-c2ccc(OCCN3CCCC3)cc2)cc1-c1nnnn1-c1cccc(F)c1F` [I-A-346], the inhibitory constant (Ki) (as a rule, the dissociation constant of the complex between target and ligand, obtained from inhibition or displacement) is ≤ 100 nM. In the case of `Nc1ncc(-c2ccc3[nH]ncc3c2)cc1-c1nnnn1-c1cccc(F)c1F` [I-A-347] it was ≤ 100 nM; in that of `CC(C)(O)Cn1cc(-c2cnc(N)c(-c3nnnn3-c3cccc(F)c3F)c2)cn1` [I-A-348], ≤ 100 nM; in that of `Nc1ncc(-c2cnn(Cc3ccccc3)c2)cc1-c1nnnn1-c1cccc(F)c1F` [I-A-349], ≤ 100 nM. Regarding `Nc1ncc(-c2cnn(CC(=O)O)c2)cc1-c1nnnn1-c1cccc(F)c1F` [I-A-350], the Ki was in the range of 100 to 1000 nM.

Turning to `CN[C@@H](C)c1ccc(-c2cnc(N)c(-c3nnnn3-c3cccc(F)c3F)c2)cc1` [I-A-351], the Ki was ≤ 100 nM. Consider `COC(=O)Nc1ccc(-c2cnc(N)c(-c3nnnn3-c3cccc(F)c3F)c2)cc1` [I-A-352], for which the inhibition constant (Ki) lay in the range of 100 to 1000 nM. As for `CS(=O)(=O)Nc1ccc(-c2cnc(N)c(-c3nnnn3-c3cccc(F)c3F)c2)cc1` [I-A-353], the figure is 100 to 1000 nM; as for `COCCOc1ccc(-c2cnc(N)c(-c3nnnn3-c3cccc(F)c3F)c2)cc1OCCOC` [I-A-354], ≤ 100 nM; as for `Nc1ncc(-c2ccc(CN3CCCC3)cc2)cc1-c1nnnn1-c1cccc(Cl)c1` [I-A-356], 100 to 1000 nM. As for `CC1(C)CN(c2ccc(-c3cnc(N)c(-c4nnnn4-c4cccc(F)c4F)c3)cc2)C1=O` [I-A-357], the figure is 100 to 1000 nM. In the case of `CN(C)Cc1ccc(-c2cnc(N)c(-c3nnnn3-c3cccc(Cl)c3)c2)cc1` [I-A-358] it was 100 to 1000 nM; in that of `CC(=O)Nc1cccc(-c2cnc(N)c(-c3nnnn3-c3cccc(Cl)c3)c2)c1` [I-A-359], 100 to 1000 nM; in that of `CN(C)Cc1ccc(-c2cnc(N)c(-c3nnnn3-c3cccc(Cl)c3F)c2)cc1` [I-A-360], ≤ 100 nM. The molecule `Nc1ncc(-c2ccc(CN3CCCC3)cc2)cc1-c1nnc(O)n1-c1cccc(F)c1F` [I-A-362] gave a Ki of 100 to 1000 nM. As for `Nc1ncc(-c2cnn(CC(=O)N3CCCC3)c2)cc1-c1nnnn1-c1cccc(F)c1F` [I-A-364], the figure is 100 to 1000 nM; as for `Nc1ncc(-c2cnn(C(c3ccccc3)(c3ccccc3)c3ccccc3)c2)cc1-c1nnnn1-c1cccc(F)c1F` [I-A-365], 100 to 1000 nM; as for `Nc1ncc(-c2cn[nH]c2)cc1-c1nnnn1-c1cccc(F)c1F` [I-A-366], ≤ 100 nM. For `COCCn1cc(-c2cnc(N)c(-c3nnnn3-c3cccc(F)c3F)c2)cn1` [I-A-367], the Ki is ≤ 100 nM. As for `Nc1ncc(-c2cnn(CC(O)CO)c2)cc1-c1nnnn1-c1cccc(F)c1F` (centres unmarked) [I-A-368], the figure is ≤ 100 nM. In the case of `CNC(=O)Cn1cc(-c2cnc(N)c(-c3nnnn3-c3cccc(F)c3F)c2)cn1` [I-A-369] it was 100 to 1000 nM. In the case of `Nc1ncc(-c2cnn(C3CCNCC3)c2)cc1-c1nnnn1-c1cccc(F)c1F` [I-A-370] it was ≤ 100 nM; in that of `Nc1ncc(-c2cnn(C3CCNCC3)c2)cc1-c1nnnn1-c1cccc(Cl)c1Cl` [I-A-371], ≤ 100 nM; in that of `Nc1ncc(-c2ccc(N3CC(CO)OC3=O)cc2)cc1-c1nnnn1-c1cccc(F)c1F` (centres unmarked) [I-A-372], ≤ 100 nM. With `Nc1ncc(-c2ccc(CN3CCCC3)cc2)cc1-c1nnnn1-c1c(F)ccc(Cl)c1F` [I-A-376], the Ki was ≤ 100 nM. As for `CN(C)Cc1ccc(-c2cnc(N)c(-c3nnnn3-c3c(F)ccc(Cl)c3F)c2)cc1` [I-A-377], the figure is ≤ 100 nM; as for `Nc1ncc(-c2ccc(CN3CCCC3)cc2)cc1-c1nnnn1-c1c(F)ccc(F)c1F` [I-A-380], ≤ 100 nM. In the case of `CN(C)Cc1ccc(-c2cnc(N)c(-c3nnnn3-c3c(F)ccc(F)c3F)c2)cc1` [I-A-381] it was ≤ 100 nM; in that of `Nc1ncc(-c2cnn(C3CCNCC3)c2)cc1-c1nnnn1-c1c(F)ccc(Cl)c1F` [I-A-382], ≤ 100 nM. Take `CC(=O)Nc1cccc(-c2cnc(N)c(-c3nnnn3-c3c(F)ccc(F)c3N)c2)c1` [I-A-383]: the inhibitory constant (Ki) is 100 to 1000 nM. In the case of `Nc1ncc(-c2cnn(C3CCNCC3)c2)cc1-c1nnnn1-c1cccc(F)c1Cl` [I-A-385] it was ≤ 100 nM.

`Nc1ncc(-c2ccc(CN3CCCC3)cc2)cc1-c1nnnn1-c1cccc(F)c1Cl` [I-A-386] displayed a Ki of 100 to 1000 nM. In the case of `CN(C)Cc1ccc(-c2cnc(N)c(-c3nnnn3-c3cccc(F)c3Cl)c2)cc1` [I-A-387] it was 100 to 1000 nM. In the case of `Cc1nnc(-c2cc(-c3ccc(CN4CCCC4)cc3)cnc2N)n1-c1cccc(F)c1Cl` [I-A-388] it was 100 to 1000 nM. In the case of `Cc1nnc(-c2cc(-c3ccc(CN(C)C)cc3)cnc2N)n1-c1cccc(F)c1Cl` [I-A-389] it was 100 to 1000 nM. In turn, `Cc1nnc(-c2cc(-c3cnn(C4CCNCC4)c3)cnc2N)n1-c1cccc(F)c1Cl` [I-A-390] registered an inhibitory constant (Ki) of 100 to 1000 nM. `Nc1ncc(-c2ccc(CN3CCCC3)c(O)c2)cc1-c1nnnn1-c1cccc(F)c1F` [I-A-391]: the inhibitory constant (Ki) was ≤ 100 nM. In the case of `CC(=O)N1CCC(n2cc(-c3cnc(N)c(-c4nnnn4-c4cccc(F)c4Cl)c3)cn2)CC1` [I-A-392] it was 100 to 1000 nM. As for `Nc1ncc(-c2ccc(CN3CCCC3)cc2)cc1-c1nccn1-c1cccc(Cl)c1Cl` [I-A-393], the figure is ≤ 100 nM; as for `Nc1ncc(-c2cnn(C3CCNCC3)c2)cc1-c1nccn1-c1cccc(Cl)c1Cl` [I-A-394], ≤ 100 nM. Consider `Nc1ncc(-c2cnn(C3CCN(C(=O)C(F)(F)F)CC3)c2)cc1-c1nnnn1-c1cccc(F)c1Cl` [I-A-395], for which the Ki fell in the range of 100 to 1000 nM. With `Nc1ncc(-c2cnn(C3CCOCC3)c2)cc1-c1nnnn1-c1cccc(F)c1F` [I-A-396], the Ki was ≤ 100 nM. In the case of `Nc1ncc(-c2cnn(C3CCOCC3)c2)cc1-c1nnnn1-c1cccc(Cl)c1F` [I-A-397] it was ≤ 100 nM; in that of `CC(=O)Nc1cc(-c2cnc(N)c(-c3nnnn3-c3cccc(Cl)c3F)c2)ccc1CN1CCCC1` [I-A-398], ≤ 100 nM. As for `CC(=O)N1CCC(n2cc(-c3cnc(N)c(-c4nnnn4-c4cccc(Cl)c4F)c3)cn2)CC1` [I-A-399], the figure is ≤ 100 nM; as for `Nc1ncc(-c2ccc(C3CCNCC3)cc2)cc1-c1nnnn1-c1cccc(F)c1F` [I-A-400], ≤ 100 nM; as for `Nc1ncc(-c2cccc(N3CCNCC3)c2)cc1-c1nccn1-c1cccc(Cl)c1Cl` [I-A-401], ≤ 100 nM. Take `CN1CCN(c2ccc(-c3cnc(N)c(-c4nccn4-c4cccc(Cl)c4Cl)c3)cc2)CC1` [I-A-402]: the Ki lay in the range of 100 to 1000 nM. In the case of `Nc1ncc(-c2cnn(C3CCCCC3)c2)cc1-c1nnnn1-c1cccc(F)c1F` [I-A-403] it was ≤ 100 nM. In the case of `Nc1ncc(-c2cnn([C@@H]3CCNC3)c2)cc1-c1nnnn1-c1cccc(F)c1F` [I-A-404] it was ≤ 100 nM. In the case of `Nc1ncc(-c2cnn([C@H]3CCCNC3)c2)cc1-c1nnnn1-c1cccc(F)c1F` [I-A-405] it was ≤ 100 nM; in that of `CN(C)CCn1cc(-c2cnc(N)c(-c3nnnn3-c3cccc(F)c3F)c2)cn1` [I-A-406], ≤ 100 nM; in that of `Nc1ncc(-c2cnn(CCN3CCCC3)c2)cc1-c1nnnn1-c1cccc(F)c1F` [I-A-407], ≤ 100 nM.

Consider `Nc1ncc(-c2cnn([C@@H]3CCNC3)c2)cc1-c1nnnn1-c1cccc(Cl)c1Cl` [I-A-408], for which the Ki was ≤ 100 nM.

For `Nc1ncc(-c2cnn([C@H]3CCCNC3)c2)cc1-c1nnnn1-c1cccc(Cl)c1Cl` [I-A-409], the inhibition constant (Ki) is ≤ 100 nM. As for `CN(C)CCn1cc(-c2cnc(N)c(-c3nnnn3-c3cccc(Cl)c3Cl)c2)cn1` [I-A-410], the figure is ≤ 100 nM. In the case of `Nc1ncc(-c2cnn(CCN3CCCC3)c2)cc1-c1nnnn1-c1cccc(Cl)c1Cl` [I-A-411] it was ≤ 100 nM.

On to `Nc1ncc(-c2cnn([C@H]3CCNC3)c2)cc1-c1nnnn1-c1cccc(F)c1F` [I-A-412], for which the Ki was ≤ 100 nM. For `Nc1ncc(-c2cnn([C@H]3CCNC3)c2)cc1-c1nnnn1-c1cccc(Cl)c1Cl` [I-A-413], the Ki is ≤ 100 nM. As for `Nc1ncc(-c2cccc(N3CCNCC3)c2)cc1-c1nnnn1-c1cccc(F)c1F` [I-A-414], the figure is ≤ 100 nM. As for `Nc1ncc(-c2ccc(C3CCNCC3)s2)cc1-c1nnnn1-c1cccc(F)c1F` [I-A-415], the figure is ≤ 100 nM; as for `Nc1ncc(-c2ccc(C3CCNCC3)s2)cc1-c1nnnn1-c1cccc(Cl)c1Cl` [I-A-416], ≤ 100 nM; as for `Nc1ncc(-c2cnn([C@@H]3CCCNC3)c2)cc1-c1nnnn1-c1cccc(F)c1F` [I-A-417], ≤ 100 nM. As for `Nc1ncc(-c2cnn([C@@H]3CCCNC3)c2)cc1-c1nnnn1-c1cccc(Cl)c1Cl` [I-A-418], the figure is ≤ 100 nM; as for `Nc1ncc(-c2cnn([C@@H]3CCOC3)c2)cc1-c1nnnn1-c1cccc(F)c1F` [I-A-419], ≤ 100 nM; as for `Nc1ncc(-c2cnn([C@@H]3CCOC3)c2)cc1-c1nnnn1-c1cccc(Cl)c1F` [I-A-420], ≤ 100 nM. In turn, `Nc1ncc(-c2cnn([C@@H]3CCOC3)c2)cc1-c1nnnn1-c1cccc(-c2cnn([C@@H]3CCOC3)c2)c1F` [I-A-421] came in with a Ki of 100 to 1000 nM. In the case of `Nc1ncc(C2=CCN(C(=O)C3CCOC3)CC2)cc1-c1nnnn1-c1cccc(F)c1F` (centres unmarked) [I-A-422] it was ≤ 100 nM; in that of `Nc1ncc(C2=CCN(C(=O)C3CCCNC3)CC2)cc1-c1nnnn1-c1cccc(F)c1F` (centres unmarked) [I-A-423], ≤ 100 nM; in that of `Nc1ncc(C2=CCN(C3CCNCC3)CC2)cc1-c1nnnn1-c1cccc(F)c1F` [I-A-424], 100 to 1000 nM. For the molecule `Nc1ncc(-c2cnn([C@H]3CCOC3)c2)cc1-c1nnnn1-c1cccc(F)c1F` [I-A-425], the inhibition constant (Ki) was ≤ 100 nM. As for `Nc1ncc(-c2cnn(C3CNC3)c2)cc1-c1nnnn1-c1cccc(F)c1F` [I-A-426], the figure is ≤ 100 nM; as for `Nc1ncc(-c2cnn(C3CNC3)c2)cc1-c1nnnn1-c1cccc(Cl)c1Cl` [I-A-427], ≤ 100 nM. As for `Nc1ncc(-c2cnn(C3CCCNCC3)c2)cc1-c1nnnn1-c1cccc(F)c1F` (centres unmarked) [I-A-428], the figure is ≤ 100 nM.
